From patent publication US8367695B2, “Condensed tetrahydroquinoline derivative and use thereof for medical purposes” (Mitsubishi Tanabe Pharma Corporation, priority 2007, dated 2013)

What follows are molecules tested against T1, human recombinant progesterone receptor-B (PRB) (Homo sapiens, UniProt P06401) (assay: Radioactive ligand binding test, PRB cytosol, [3H]-Prog). Conditions: not given.
T1 construct: purchased Invitrogen (Carlsbad, Calif.)
T1 sequence (P06401 1-933): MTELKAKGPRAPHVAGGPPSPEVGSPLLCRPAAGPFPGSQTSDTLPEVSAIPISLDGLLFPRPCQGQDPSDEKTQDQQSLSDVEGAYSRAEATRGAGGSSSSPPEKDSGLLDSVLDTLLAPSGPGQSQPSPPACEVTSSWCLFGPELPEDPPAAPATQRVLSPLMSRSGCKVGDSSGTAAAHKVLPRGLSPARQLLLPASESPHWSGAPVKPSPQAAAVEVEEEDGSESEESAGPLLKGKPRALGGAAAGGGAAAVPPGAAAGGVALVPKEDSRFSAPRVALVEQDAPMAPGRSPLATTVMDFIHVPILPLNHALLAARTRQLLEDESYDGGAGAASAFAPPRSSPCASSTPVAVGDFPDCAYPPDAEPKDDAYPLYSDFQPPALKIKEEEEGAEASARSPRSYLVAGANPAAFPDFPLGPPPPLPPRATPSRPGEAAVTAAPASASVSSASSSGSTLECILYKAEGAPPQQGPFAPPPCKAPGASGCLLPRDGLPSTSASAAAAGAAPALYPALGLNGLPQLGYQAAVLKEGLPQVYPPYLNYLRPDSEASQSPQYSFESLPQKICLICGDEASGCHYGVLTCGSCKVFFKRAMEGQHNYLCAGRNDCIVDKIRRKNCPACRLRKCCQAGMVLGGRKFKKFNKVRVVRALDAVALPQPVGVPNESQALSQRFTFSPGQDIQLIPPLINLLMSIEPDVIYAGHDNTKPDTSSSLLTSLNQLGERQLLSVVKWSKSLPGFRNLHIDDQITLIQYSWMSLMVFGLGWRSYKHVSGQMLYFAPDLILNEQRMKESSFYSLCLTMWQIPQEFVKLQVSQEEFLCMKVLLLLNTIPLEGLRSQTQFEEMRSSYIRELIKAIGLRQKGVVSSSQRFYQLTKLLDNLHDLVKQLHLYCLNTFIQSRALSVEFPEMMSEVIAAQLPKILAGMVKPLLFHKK
Text: Radioactive Ligand Binding Test Using Cytosols of Human Glucocorticoids Receptor, Progesterone Receptor and Mineralocorticoid Receptor
The procedures described in Neuroimmunomodulation (1994, 1, p. 66-73) and Invest. Opthalmol. Vis. Sci. (1996, 37, p. 805-813) were modified and used. In brief, cytosol preparations of human recombinant glucocorticoids receptor (GR) and human recombinant progesterone receptor-B (PRB) were purchased from Invitrogen (Carlsbad, Calif.), and a cytosol preparation of human recombinant mineralocorticoid receptor (MR) was prepared by our company (Yokohama, JP). MR cDNA was cloned into a baculovirus expression vector and expressed in insect cell Sf9. The procedures described in J. Biol. Chem. (1991, 266, p. 18072-18081), Proc. Natl. Acad. Sci. USA (1991, 88, p. 10681-10685) and Bac-to-Bac (registered trade mark) Baculovirus Expression Systems technical manual (Invitrogen) were partly modified and used as the procedures for MR gene cloning up to preparation of recombinant receptor cytosol. [^3H]-Dexamethasone (Dex, specific activity 91.0 Ci/mmol) was purchased from GE Healthcare (Buckinghamshire, UK), and [^3H]-progesterone (Prog, specific activity 103 Ci/mmol) and [3H]-aldosterone (Ald, specific activity 87.9 Ci/mmol) were each purchased from PerkinElmer (Boston, Mass.). Polypropylene round-bottomed 96 well plate was obtained from ABgene (Epsom, UK). Dimethyl Sulfoxide (DMSO) and hydrochloric acid were obtained from Kanto Chemical (TOKYO, JP). Trizma Base (Tris), Bovine Serum Albumin (BSA) and Sodium tungstate dihydrate were obtained from Sigma Chemicals (St. Louis, Mo.). Dithiothreitol (DTT) and Dextran 70 were obtained from GE Healthcare (Buckinghamshire, UK). Glycerol was obtained from Junsei Chemical (TOKYO, JP). Norit® “SX-II” was obtained from Wako Pure Chemical Industries, Ltd. (Osaka, JP). MeltiLex™, A, Printed Filtermat A and Sample Bag were obtained from PerkinElmer (Boston, Mass.).
As a buffer for GR binding assay, 25 mM Tris-HCl (4° C., pH 7.4)/1 mM EDTA·2Na/1 mM DTT/0.1% BSA was prepared and used. As buffers for PRB and MR binding assay, 10 mM Tris-HCl (4° C., pH 7.4)/1 mM DTT/0.1% BSA/10% glycerol and 20 mM Tris-HCl (4° C., pH 7.4)/1 mM EDTA·2Na/10% glycerol/20 mM sodium tungstate were respectively prepared and used. As dextran-coated charcoal (DCC) for B/F separation, 0.75% Dextran 70/0.75% Norit® SX-II/10 mM Tris-HCl (4° C., pH 7.4) was prepared and used.
Compound storage solutions (5-20 mM) were prepared using DMSO. The storage solutions were diluted with DMSO to 0.1 mM (for GR) and 0.3 mM (for PRB and MR), and further diluted 20-fold with distilled water to give solutions. Then, the preparations were diluted to each concentration with 5% DMSO solution. 1% DMSO was present at the time of the binding assay.
In the case of PRB binding assay, [^3H]-Prog (about 5 nM), PRB cytosol (concentration of function receptor: about 4 pmol/mL), a test compound and a binding buffer were mixed in a total volume of 50 μL, and the mixture was stood at 4° C. for 30 min or longer. A specific binding was defined to be the difference in the [^3H]-Prog binding between the presence and the absence of 1 μM unlabeled Prog.
After the reaction, 50 μL of DCC was added to each well and blended. Thereafter, the mixture was stood at 4° C. for 10 min. The plate was applied to high-speed cooling centrifuge under the conditions of 4° C., 2000 rpm, 5 min to perform B/F separation. A given amount of the supernatant was recovered, which was spotted on Filtermat A of 96 well format (PerkinElmer) and rapidly dried at a high temperature. Then, solid scintillator MeltiLex A (PerkinElmer) was melted on Filtermat A. The mixture was placed in a Sample Bag (PerkinElmer), and the level of radioactivity was measured by plate reader 1450 Micro Beta TRILUX (PerkinElmer).
Measurement of Inhibition Constant (Ki)

SMILES	Ki [nM]
CC1(C)Nc2c(cc(-c3cccc4nncn34)c3c2CCC3)C(C)(C)C1=O [Example 17, 2,2,4,4-tetramethyl-6-([1,2,4]triazolo[4,3-a]pyridin-5-yl)-2,3,4,7,8,9-hexahydro-1H-cyclopenta[h]quinolin-3-one]	> 1250
C=CCC1(C)C(=O)C(C)(C)Nc2c1cc(-c1cccc3cc[nH]c13)c1c2OCO1 (stereo not drawn) [Example 78, 6-allyl-4-(1H-indol-7-yl)-6,8,8-trimethyl-6,7,8,9-tetrahydro-[1,3]dioxolo[4,5-h]quinolin-7-one]	> 1250

Same assay, conditions: [3H]-Prog about 5 nM, PRB cytosol, 4° C.; Cheng-Prusoff, Kd about 3.5 nM; read-out: PR (Ki: nM)

SMILES	Ki [nM]
Cc1noc(C)c1-c1cc2c(c3c1CCC3)NC(C)(C)C(=O)C2(C)C [Example 2, 6-(3,5-dimethylisoxazol-4-yl)-2,2,4,4-tetramethyl-2,3,4,7,8,9-hexahydro-1H-cyclopenta[h]quinolin-3-one]	> 1250
Cc1nnn(C)c1-c1cc2c(c3c1CCC3)NC(C)(C)C(=O)C2(C)C [Example 4, 6-(3,5-dimethyl-3H-[1,2,3]triazol-4-yl)-2,2,4,4-tetramethyl-2,3,4,7,8,9-hexahydro-1H-cyclopenta[h]quinolin-3-one]	> 1250
CC1(C)Nc2c(cc(-c3ccnc4cc[nH]c34)c3c2CCC3)C(C)(C)C1=O [Example 13, 2,2,4,4-tetramethyl-6-(1H-pyrrolo[3,2-b]pyridin-7-yl)-2,3,4,7,8,9-hexahydro-1H-cyclopenta[h]quinolin-3-one]	> 1250
CC1(C)Nc2c(cc(-c3cccc4nccn34)c3c2CCC3)C(C)(C)C1=O [Example 14, 6-(imidazo[1,2-a]pyridin-5-yl)-2,2,4,4-tetramethyl-2,3,4,7,8,9-hexahydro-1H-cyclopenta[h]quinolin-3-one]	> 1250
CC1(C)Nc2c(cc(-c3cccc4ncccc34)c3c2CCC3)C(C)(C)C1=O [Example 20, 2,2,4,4-tetramethyl-6-(quinolin-5-yl)-2,3,4,7,8,9-hexahydro-1H-cyclopenta[h]quinolin-3-one]	> 1250
CC1(C)Nc2c(cc(-c3ccnc4ncccc34)c3c2CCC3)C(C)(C)C1=O [Example 21, 2,2,4,4-tetramethyl-6-([1,8]naphthyridin-4-yl)-2,3,4,7,8,9-hexahydro-1H-cyclopenta[h]quinolin-3-one]	> 1250
C=C1C(C)(C)Nc2c(cc(-c3c(C)ncn3C)c3c2CCC3)C1(C)C [Example 29, 6-(3,5-dimethyl-3H-imidazol-4-yl)-2,2,4,4-tetramethyl-3-methylene-2,3,4,7,8,9-hexahydro-1H-cyclopenta[h]quinoline]	> 1250
C=CCC1(C)C(=O)C(C)(C)Nc2c1cc(-c1ccc(O)cc1C)c1c2CCC1 (stereo not drawn) [Example 50, 4-allyl-6-(4-hydroxy-2-methylphenyl)-2,2,4-trimethyl-2,3,4,7,8,9-hexahydro-1H-cyclopenta[h]quinolin-3-one]	> 1250
C=CCC1(C)C(=O)C(C)(C)Nc2c1cc(-c1c(C)noc1C)c1c2CCC1 (stereo not drawn) [Example 51, 4-allyl-6-(3,5-dimethylisoxazol-4-yl)-2,2,4-trimethyl-2,3,4,7,8,9-hexahydro-1H-cyclopenta[h]quinolin-3-one]	> 1250
C=CCC1(C)C(=O)C(C)(C)Nc2c1cc(-c1cccc3nccn13)c1c2CCC1 (stereo not drawn) [Example 57, 4-allyl-6-(imidazo[1,2-a]pyridin-5-yl)-2,2,4-trimethyl-2,3,4,7,8,9-hexahydro-1H-cyclopenta[h]quinolin-3-one]	> 1250
CCC1(C)C(=O)C(C)(C)Nc2c1cc(-c1cccc3nccn13)c1c2CCC1 (stereo not drawn) [Example 58, 4-ethyl-6-(imidazo[1,2-s]pyridin-5-yl)-2,2,4-trimethyl-2,3,4,7,8,9-hexahydro-1H-cyclopenta[h]quinolin-3-one]	1010
CC#CCC1(C)C(=O)C(C)(C)Nc2c1cc(-c1cccc3nccn13)c1c2CCC1 (stereo not drawn) [Example 63, 4-(2-butynyl)-6-(imidazo[1,2-a]pyridin-5-yl)-2,2,4-trimethyl-2,3,4,7,8,9-hexahydro-1H-cyclopenta[h]quinolin-3-one]	> 1250
Cc1noc(C)c1-c1cc2c(c3c1OCO3)NC(C)(C)C(=O)C2(C)C [Example 69, 4-(3,5-dimethylisoxazol-4-yl)-6,6,8,8-tetramethyl-6,7,8,9-tetrahydro-[1,3]dioxolo[4,5-h]quinolin-7-one]	> 1250
CC1(C)Nc2c(cc(-c3cccc4nccn34)c3c2OCO3)C(C)(C)C1=O [Example 71, 4-(imidazo[1,2-a]pyridin-5-yl)-6,6,8,8-tetramethyl-6,7,8,9-tetrahydro-[1,3]dioxolo[4,5-h]quinolin-7-one]	> 1250
CC1(C)Nc2c(cc(-c3cccc4ncccc34)c3c2OCO3)C(C)(C)C1=O [Example 72, 6,6,8,8-tetramethyl-4-(quinolin-5-yl)-6,7,8,9-tetrahydro-[1,3]dioxolo[4,5-h]quinolin-7-one]	> 1250
CC1(C)Nc2c(cc(-c3cccc4nccn34)c3c2OC(F)(F)O3)C(C)(C)C1=O [Example 82, 2,2-difluoro-4-(imidazo[1,2-a]pyridin-5-yl)-6,6,8,8-tetramethyl-6,7,8,9-tetrahydro-[1,3]dioxolo[4,5-h]quinolin-7-one]	> 1250
Cc1noc(C)c1-c1cc2c(c3c1OCC3)NC(C)(C)C(=O)C2(C)C [Example 84, 6-(3,5-dimethylisoxazol-4-yl)-2,2,4,4-tetramethyl-1,2,3,4,8,9-hexahydro-furo[2,3-h]quinolin-3-one]	> 1250
CC1(C)Nc2c(cc(-c3cccc4nccn34)c3c2CCO3)C(C)(C)C1=O [Example 88, 6-(imidazo[1,2-a]pyridin-5-yl)-2,2,4,4-tetramethyl-1,2,3,4,8,9-hexahydro-furo[2,3-h]quinolin-3-one]	> 1250
CC1(C)Nc2c(cc(-c3ccnc4ncccc34)c3c2CCO3)C(C)(C)C1=O [Example 92, 2,2,4,4-tetramethyl-6-([1,8]naphthyridin-4-yl)-1,2,3,4,8,9-hexahydro-furo[2,3-h]quinolin-3-one]	> 1250
